Test results from patent US20080176914A1, “CRYSTAL FORM OF 2-(3-FLUORO-4-HYDROXYPHENYL)-7-VINYL-1,3-BENZOXAZOL-5-OL” (WYETH, priority 2006, published 2008).

Assay: Conversion of the crystal form on suspending and stirring in solvent at room temperature
Assay type: physicochemical
From the text: The anhydrate crystal form (Form B) can be converted to other crystal forms under suitable conditions.

crystal form obtained after suspending and stirring in water (suspended and stirred in water at room temperature for three days): a hydrate crystal form is obtained
Structure (SMILES): C=Cc1cc(O)cc2nc(-c3ccc(O)c(F)c3)oc12 [Form B, 2-(3-fluoro-4-hydroxyphenyl)-7-vinyl-1,3-benzoxazol-5-ol]
crystal form obtained after suspending and stirring in ethanol (suspended and stirred in ethanol at room temperature for three days): another anhydrate crystal form is obtained
crystal form obtained after suspending and stirring in methanol (suspended and stirred in methanol at room temperature for one day): another anhydrate crystal form is obtained
